Consider 23 molecules from patent US9540343B2 (Gilead Sciences, Inc., priority 2011, dated 2017).

Broadly, the inhibition is the relative decrease from the control value, in per cent. By CC50 is commonly meant the concentration at which the toxic effect on the cells reaches its halfway point.

Data set [1] deals with HIV-IIIb. In words: Test A: Antiviral assay in MT4 cells. It counts as cell-based, HIV-1. As to conditions: Human immunodeficiency virus 1, IIIB, MT4, 120 h, read-out: % inhibition at 2 μM, percent inhibition of virus-induced cell killing, from dose response curve at 2 uM drug; MT-4 cells infected with HIV-IIIb, 5 days, CellTiter-Glo.
The nature of data set [2]: in vitro. The essentials:
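Cytoprotection read-out: CellTiter-Glo chemiluminescence after 5 days at 37 °C of HIV-IIIb-infected MT-4 cells (m.o.i. 0.003) with compound in 10-point 3-fold dilutions, quadruplicate, 10% FBS. Cytotoxicity (CC50) measured identically without virus.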

[3] abbreviates: human, uninfected MT-4 cells, CC50 (nM), same protocol as Test A, CellTiter-Glo.

As for `NC(=O)c1cc(-c2cccnc2[C@H](Cc2cccc(F)c2)NC(=O)Cn2nc(C(F)(F)F)c3c2CCS(=O)(=O)C3)ccc1F` [Example 204, (S)-5-(2-(1-(2-(5,5-dioxido-3-(trifluoromethyl)-6,7-dihydrothiopyrano[4,3-c]pyrazol-1(4H)-yl)acetamido)-2-(3-fluorophenyl)ethyl)pyridin-3-yl)-2-fluorobenzamide], the inhibition at 2 µM in data set [1] was found to be 1%. Moreover, the CC50 at 5 days in data set [2] (setting [3]) is over 53200 nM.

Consider `NC(=O)c1cc(-c2cccnc2[C@H](Cc2cc(F)cc(F)c2)NC(=O)Cn2nc(C(F)(F)F)c3c2CC(O)C3)ccc1F` (stereo partly shown) [Example 265], for which the inhibition at 2 µM in data set [1] came out at 74%. In data set [2] (setting [3]), this molecule displayed a CC50 at 5 days of over 53200 nM.

Consider `NC(=O)c1cc(-c2cccnc2[C@H](Cc2cc(F)cc(F)c2)NC(=O)Cn2nc3c(c2C(F)(F)F)COC3)ccc1F` [Example 203D, (S)-5-(2-(2-(3,5-difluorophenyl)-1-(2-(3-(trifluoromethyl)-4,6-dihydro-2H-furo[3,4-c]pyrazol-2-yl)acetamido)ethyl)pyridin-3-yl)-2-fluorobenzamide], for which, in data set [1], the inhibition at 2 µM stood at 0%. This molecule returned a CC50 at 5 days in data set [2] (setting [3]) of over 53200 nM.

For the molecule `O=C(Cn1nc(C(F)F)c2c1C(F)(F)C1CC21)N[C@@H](Cc1cc(F)cc(F)c1)c1ncncc1-c1cccc2cnccc12` (stereo partly drawn) [Example 185C, 2-(3-(difluoromethyl)-5,5-difluoro-3b,4,4a,5-tetrahydro-1H-cyclopropa[3,4]cyclopenta[1,2-c]pyrazol-1-yl)-N—((S)-2-(3,5-difluorophenyl)-1-(5-(isoquinolin-5-yl)pyrimidin-4-yl)ethyl)acetamide], the inhibition at 2 µM in data set [1] was determined as 94%. In addition, the CC50 at 5 days in data set [2] (setting [3]) worked out at 26500 nM.

As to `CC(C)C(C(=O)N[C@@H](Cc1cc(F)cc(F)c1)c1ncccc1-c1ccc(F)c(C(N)=O)c1)n1ccc(C(F)(F)F)n1` (single isomer, unassigned) [Example 479], the inhibition at 2 µM in data set [1] amounted to 2%. In data set [2] (setting [3]), the CC50 at 5 days worked out at 26400 nM.

Regarding `O=C(Cn1nc(C(F)F)c2c1C(F)(F)C1CC21)N[C@@H](Cc1cc(F)cc(F)c1)c1ncccc1-c1ccc2ccncc2c1` (stereo partly drawn) [Example 104, (S)—N-(1-(3-(isoquinolin-7-yl)-pyridin-2-yl)-2-(3,5-difluorophenyl)ethyl)-2-(3-(difluoromethyl)-5,6-dihydro-4,5-(methano)-6,6-difluoro-cyclopenta[c]pyrazol-1(4H)-yl)acetamide], in data set [1], the inhibition at 2 µM turned out to be 32%. The CC50 at 5 days in data set [2] (setting [3]) was 15700 nM.

With `CC(C)(C)OC(=O)N1CCC[C@H]1C(=O)N[C@@H](Cc1cc(F)cc(F)c1)c1ncccc1-c1ccc(F)c(C(N)=O)c1` [Example 171, (S)-tert-butyl 2-((S)-1-(3-(3-carbamoyl-4-fluorophenyl)pyridin-2-yl)-2-(3,5-difluorophenyl)ethylcarbamoyl)pyrrolidine-1-carboxylate], the inhibition at 2 µM in data set [1] was 4%. For the same molecule, the CC50 at 5 days in data set [2] (setting [3]) is 11900 nM.

Consider `Cc1ccccc1-c1cccnc1[C@H](Cc1ccccc1)NC(=O)Cn1nc(C(F)(F)F)c2c1CCCC2` [Example 17, (S)—N-(2-phenyl-1-(3-o-tolylpyridin-2-yl)ethyl)-2-(3-(trifluoromethyl)-4,5,6,7-tetrahydro-1H-indazol-1-yl)acetamide], for which, in data set [1], the inhibition at 2 µM is 70%. In addition, the CC50 at 5 days in data set [2] (setting [3]) is 13800 nM.

For the molecule `NC(=O)c1cc(-c2cccnc2[C@H](Cc2cc(F)cc(F)c2)NC(=O)COc2ccnc(Cl)c2)ccc1F` [Example 332B, (S)-5-(2-(1-(2-(2-chloropyridin-4-yloxy)acetamido)-2-(3,5-difluorophenyl)ethyl)pyridin-3-yl)-2-fluorobenzamide], in data set [1], the inhibition at 2 µM stood at 2%. The molecule also returned a CC50 at 5 days in data set [2] (setting [3]) of 40000 nM.

Take `Cc1ccccc1-c1cccnc1[C@H](Cc1cc(F)cc(F)c1)NC(=O)Cn1nc(C(F)(F)F)c2c1CCCC2` [Example 27, (S)—N-(2-(3,5-difluorophenyl)-1-(3-o-tolylpyridin-2-yl)ethyl)-2-(3-(trifluoromethyl)-4,5,6,7-tetrahydro-1H-indazol-1-yl)acetamide]: in data set [1], the inhibition at 2 µM was 72%. The molecule further returned a CC50 at 5 days in data set [2] (setting [3]) of 12000 nM.

As for `O=C(Cn1nc(C(F)(F)F)c2c1CCCC2)N[C@@H](Cc1cc(F)cc(F)c1)c1ncccc1-c1cnc2[nH]ccc2c1` [Example 407, (S)—N-(1-(3-(1H-pyrrolo[2,3-b]pyridin-5-yl)pyridin-2-yl)-2-(3,5-difluorophenyl)ethyl)-2-(3-(trifluoromethyl)-4,5,6,7-tetrahydro-1H-indazol-1-yl)acetamide], the inhibition at 2 µM in data set [1] turned out to be 102%. In addition, the CC50 at 5 days in data set [2] (setting [3]) worked out at 12000 nM.

Turning to `CC(C)Cc1ccc(-c2cccnc2[C@H](Cc2cc(F)cc(F)c2)NC(=O)Cc2c[nH]c3ccc(F)cc23)cc1` [Example 103, (S)—N-(2-(3,5-difluorophenyl)-1-(3-(4-isobutylphenyl)pyridin-2-yl)ethyl)-2-(5-fluoro-1H-indol-3-yl)acetamide], the inhibition at 2 µM in data set [1] is 0%. Moreover, in data set [2] (setting [3]), the CC50 at 5 days was 5170 nM.

As for `CC(C)(C)OC(=O)N1CCc2c(c(C(F)(F)F)nn2CC(=O)N[C@@H](Cc2cc(F)cc(F)c2)c2ncccc2-c2ccc(F)c(C(N)=O)c2)C1` [Example 274, (S)-tert-butyl 1-(2-(1-(3-(3-carbamoyl-4-fluorophenyl)pyridin-2-yl)-2-(3,5-difluorophenyl)ethylamino)-2-oxoethyl)-3-(trifluoromethyl)-6,7-dihydro-1H-pyrazolo[4,3-c]pyridine-5(4H)-carboxylate], the inhibition at 2 µM in data set [1] is 0%. In data set [2] (setting [3]), this molecule displayed a CC50 at 5 days of 11000 nM.

For `Cc1ccc2c(c1C)NC(=O)C2CC(=O)N[C@@H](Cc1cc(F)cc(F)c1)c1ncccc1-c1ccc(F)c(C(N)=O)c1` (stereo partly drawn) [Example 221, 5-(2-((1S)-2-(3,5-difluorophenyl)-1-(2-(6,7-dimethyl-2-oxoindolin-3-yl)acetamido)ethyl)pyridin-3-yl)-2-fluorobenzamide], the inhibition at 2 µM in data set [1] is 1%. Half-maximal cytotoxicity in data set [2] (setting [3]) (CC50 at 5 days) was put at 40500 nM.

For `C#Cc1cn(CC(=O)N[C@@H](Cc2cc(F)cc(F)c2)c2ncccc2-c2ccc(F)c(C(N)=O)c2)nc1C(F)(F)F` [Example 341, (S)-5-(2-(2-(3,5-difluorophenyl)-1-(2-(4-ethynyl-3-(trifluoromethyl)-1H-pyrazol-1-yl)acetamido)ethyl)pyridin-3-yl)-2-fluorobenzamide], the inhibition at 2 µM in data set [1] was found to be 13%. In data set [2] (setting [3]), this molecule returned a CC50 at 5 days of 26600 nM.

`COc1ccc(-c2cccnc2[C@H](Cc2cc(F)cc(F)c2)NC(=O)Cc2c[nH]c3cc(OC)c(OCc4ccccc4)cc23)cc1` [Example 34E, (S)-2-(5-(benzyloxy)-6-methoxy-1H-indol-3-yl)-N-(2-(3,5-difluorophenyl)-1-(3-(4-methoxyphenyl)pyridin-2-yl)ethyl)acetamide]: the inhibition at 2 µM in data set [1] is 0%. In data set [2] (setting [3]), this molecule came in with a CC50 at 5 days of 27800 nM.

For the molecule `CS(=O)(=O)Nc1ccc(-c2cccnc2[C@H](Cc2cc(F)cc(F)c2)NC(=O)Cn2nc(C(F)F)c3c2C(F)(F)C2CC32)cc1` (stereo partly drawn) [Example 433, (S)—N-(1-(3-(4-(methylsulfonamido)phenyl)-pyridin-2-yl)-2-(3,5-difluorophenyl)ethyl)-2-(3-(difluoromethyl)-5,6-dihydro-4,5-(methano)-6,6-difluoro-cyclopenta[c]pyrazol-1(4H)-yl)acetamide], the inhibition at 2 µM in data set [1] amounted to 16%. In addition, half-maximal cytotoxicity in data set [2] (setting [3]) (CC50 at 5 days) was put at 20800 nM.

Turning to `CC(=O)c1cn(CC(=O)N[C@@H](Cc2cc(F)cc(F)c2)c2ncccc2-c2ccc(Cl)cc2)c2ccccc12` [Example 541, (S)-2-(3-acetyl-1H-indol-1-yl)-N-(1-(3-(4-chlorophenyl)pyridin-2-yl)-2-(3,5-difluorophenyl)ethyl)acetamide], the inhibition at 2 µM in data set [1] worked out at 37%. In addition, the CC50 at 5 days in data set [2] (human, CC50 (nM), uninfected MT-4 cells, same protocol as Test A, CellTiter-Glo) stood at 8150 nM.

In the case of `O=C(Cn1nc(C(F)F)c2c1C(F)(F)C1CC21)N[C@@H](Cc1cc(F)cc(F)c1)c1ncccc1-c1cnc2cc[nH]c2c1` (stereo partly drawn) [Example 77, (S)—N-(1-(3-(1H-pyrrolo[3,2-b]pyridine-6-yl)-pyridin-2-yl)-2-(3,5-difluorophenyl)ethyl)-2-(3-(difluoromethyl)-5,6-dihydro-4,5-(methano)-6,6-difluoro-cyclopenta[c]pyrazol-1(4H)-yl)acetamide], the inhibition at 2 µM in data set [1] worked out at 65%. For the same molecule, in data set [2] (setting [3]), the midpoint of cytotoxicity, the CC50 at 5 days, lay at 12400 nM.

Take `Cc1cc2[nH]cc(CC(=O)N[C@@H](Cc3cc(F)cc(F)c3)c3ncccc3-c3cccc(C(N)=O)c3)c2[nH]c1=O` [Example 354, (S)-3-(2-(2-(3,5-difluorophenyl)-1-(2-(6-methyl-5-oxo-4,5-dihydro-1H-pyrrolo[3,2-b]pyridin-3-yl)acetamido)ethyl)pyridin-3-yl)benzamide]: the inhibition at 2 µM in data set [1] came to 82%. This molecule came in with a CC50 at 5 days in data set [2] (setting [3]) of over 53000 nM.

Regarding `NC(=O)c1cc(-c2cccnc2[C@H](Cc2cc(F)cc(F)c2)NC(=O)Cn2nc3c(c2C(F)(F)F)CSC3)ccc1F` [Example 261, (S)-5-(2-(2-(3,5-difluorophenyl)-1-(2-(3-(trifluoromethyl)-4,6-dihydro-2H-thieno[3,4-c]pyrazol-2-yl)acetamido)ethyl)pyridin-3-yl)-2-fluorobenzamide], the inhibition at 2 µM in data set [1] is 6%. The same molecule displayed a CC50 at 5 days in data set [2] (setting [3]) of 21200 nM.

Regarding `O=C(Cc1c[nH]c2ccc(F)cc12)N[C@@H](Cc1cc(F)cc(F)c1)c1ncccc1-c1ccc(-c2ccccc2)cc1` [Example 416, (S)—N-(1-(3-(biphenyl-4-yl)pyridin-2-yl)-2-(3,5-difluorophenyl)ethyl)-2-(5-fluoro-1H-indol-3-yl)acetamide], in data set [1], the inhibition at 2 µM was determined as 0%. Besides, the CC50 at 5 days in data set [2] (setting [3]) is 10300 nM.

On to `NCc1ccc2[nH]cc(CC(=O)N[C@@H](Cc3cc(F)cc(F)c3)c3ncccc3-c3ccc(Cl)cc3)c2c1` [Example 491F, (S)-2-(5-(aminomethyl)-1H-indol-3-yl)-N-(1-(3-(4-chlorophenyl)pyridin-2-yl)-2-(3,5-difluorophenyl)ethyl)acetamide], for which the inhibition at 2 µM in data set [1] came out at 18%. In addition, the midpoint of cytotoxicity in data set [2] (setting [3]), the CC50 at 5 days, lay at 7850 nM.
